In test [1] the target is T1, hEP2 (Homo sapiens, UniProt P43116). Kind of test: in-vitro activity at prostaglandin receptor (fhEP2). In kind it is cell-based. Particulars: functional, human EP2.
Test [2] has as its system EP2 and EP4 receptors as compared to the FP, EP1, TP, IP and DP receptors. Description: in-vitro assay for binding to and activity at prostaglandin receptors (selectivity).
Test [3] deals with T1, hEP2. Kind of test: in-vitro binding to prostaglandin receptor (bhEP2). The conditions noted are these: human EP2.
In the next test the target is hEP4 (Homo sapiens, UniProt P35408). Description: in-vitro binding to prostaglandin receptor (bhEP4). The conditions noted are these: human EP4.

Consider one molecule from patent US7932420B2, “Sulfonamides” (Allergan, Inc., priority 2005, dated 2011).

The structures appear in SMILES notation.

T1 sequence (P43116 whole entry): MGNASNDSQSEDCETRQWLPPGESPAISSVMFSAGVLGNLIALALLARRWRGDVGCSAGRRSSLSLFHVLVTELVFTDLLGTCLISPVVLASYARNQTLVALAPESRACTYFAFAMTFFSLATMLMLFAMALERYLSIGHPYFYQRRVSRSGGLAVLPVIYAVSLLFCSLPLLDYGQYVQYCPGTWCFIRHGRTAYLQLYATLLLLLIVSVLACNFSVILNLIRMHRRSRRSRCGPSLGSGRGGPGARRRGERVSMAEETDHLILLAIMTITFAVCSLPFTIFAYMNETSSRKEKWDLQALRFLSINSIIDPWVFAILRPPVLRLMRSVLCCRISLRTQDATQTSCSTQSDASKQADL
Sequence of hEP4 (P35408 whole entry): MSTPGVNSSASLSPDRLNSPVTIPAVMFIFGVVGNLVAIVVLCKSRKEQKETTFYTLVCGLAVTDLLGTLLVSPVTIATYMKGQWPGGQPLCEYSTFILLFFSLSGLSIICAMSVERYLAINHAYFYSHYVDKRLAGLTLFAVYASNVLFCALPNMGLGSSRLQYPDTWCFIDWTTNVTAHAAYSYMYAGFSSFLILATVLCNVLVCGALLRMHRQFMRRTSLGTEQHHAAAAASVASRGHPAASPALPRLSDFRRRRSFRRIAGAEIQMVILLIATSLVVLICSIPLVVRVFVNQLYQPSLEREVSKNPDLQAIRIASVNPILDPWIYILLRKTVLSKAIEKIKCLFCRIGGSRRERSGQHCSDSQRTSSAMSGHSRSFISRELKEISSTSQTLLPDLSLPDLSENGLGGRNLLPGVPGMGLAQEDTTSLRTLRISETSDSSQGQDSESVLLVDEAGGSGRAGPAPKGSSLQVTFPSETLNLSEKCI

As to `CCCC1(C(O)C/C=C/CN(CCCCCCC(=O)O)S(C)(=O)=O)CCC1` (stereo not shown) [Example 10, 7-[[5-Hydroxy-5-(1-propylcyclobutyl)pent-2-enyl]methanesulfonylamino]heptanoic acid], the fhEP2 at hEP2 [1] is 248. The “selectivity among prostaglandin receptors” value in test [2] is “selective at the EP2 and EP4 receptors”. On hEP2 [3], this molecule displayed a bhEP2 of 5560. The molecule also registered a bhEP4 on hEP4 of 50K.
